Source: US4656166A, “Antibiotic compounds derived from cephalosporins, process for their production and pharmaceutical compositions” (Sanofi, priority 1983, dated 1987)
Values after ≈ are worked out from the molar mass of the structure shown.

What was measured:
Type in all cases: cell-based
[1] = test system: Enterobacter RO 154; test: MIC, in vitro dilution method, Enterobacter RO 154 (Table III); settings: RO154; Enterobacter RO 154; dilution method; read-out: MIC
From the text: (§1) The products of the invention have been studied as regards their pharmacological properties and, more especially, bacteriostatic action. This has been determined in vitro by the dilution method, and the study was on Gram negative strains.
(§2) Results, expressed in minimum inhibiting concentrations (MIC-- μg/ml), are collected in the following table (Table III).

[2] = test system: Escherichia coli SOL 90; test: MIC, in vitro dilution method, Escherichia coli SOL 90 (Table III); settings: SOL90; Escherichia coli SOL 90; dilution method; read-out: MIC
From the text: as §1, §2

[3] = test system: Citrobacter RL 49; test: MIC, in vitro dilution method, Citrobacter RL 49 (Table III); settings: RL49; Citrobacter RL 49; dilution method; read-out: MIC
From the text: as §1, §2

[4] = test system: Proteus vulgaris RL 99 bis; test: MIC, in vitro dilution method, Proteus vulgaris RL 99 bis (Table III); settings: RL99BIS; Proteus vulgaris RL 99 bis; dilution method; read-out: MIC
From the text: as §1, §2

[5] = test system: Serratia RL 72; test: MIC, in vitro dilution method, Serratia RL 72 (Table III); settings: RL72
From the text: as §1, §2

[6] = test system: Pseudomonas RL 112; test: MIC, in vitro dilution method, Pseudomonas RL 112 (Table III); settings: RL112
From the text: as §1, §2

[7] = test system: Klebsiella RO 30; test: MIC, in vitro dilution method, Klebsiella RO 30 (Table III); settings: RO30; Klebsiella RO 30; dilution method; read-out: MIC
From the text: as §1, §2

| Compound | MIC [1] | MIC [2] | MIC [3] | MIC [4] | MIC [5] | MIC [6] | MIC [7] |
| --- | --- | --- | --- | --- | --- | --- | --- |
| Nc1nc(/C(=N/OC2(C(=O)O)CCC2)C(=O)NC2C(=O)N3C(C(=O)O)=C(COC(=O)CC4CCCNC4)C[S+]([O-])C23)cs1 (stereo not drawn) [42 472] | ≤ 0.125 µg/mL | 0.25 µg/mL (≈ 0.391 µM) | ≤ 0.125 µg/mL | ≤ 0.125 µg/mL | 0.25 µg/mL (≈ 0.391 µM) | 4 µg/mL (≈ 6.26 µM) | ≤ 0.125 µg/mL |
| CNCc1ccc(C(=O)SCC2=C(C(=O)O)N3C(=O)C(NC(=O)C(=NOC4(C(=O)O)CCC4)c4csc(N)n4)C3[S+]([O-])C2)cc1 (stereo not drawn) [compound 42534] | 0.5 µg/mL (≈ 0.739 µM) | 0.5 µg/mL (≈ 0.739 µM) | 0.25 µg/mL (≈ 0.369 µM) | ≤ 0.125 µg/mL | 1 µg/mL (≈ 1.48 µM) | 8 µg/mL (≈ 11.8 µM) | 0.25 µg/mL (≈ 0.369 µM) |
| CC(C)(CN)C(=O)OCC1=C(C(=O)O)N2C(=O)C(NC(=O)/C(=N\OC3(C(=O)O)CCC3)c3csc(N)n3)C2[S+]([O-])C1 (stereo not drawn) [42 208] | 0.25 µg/mL (≈ 0.408 µM) | 0.5 µg/mL (≈ 0.816 µM) | 0.5 µg/mL (≈ 0.816 µM) | ≤ 0.12 µg/mL | 1 µg/mL (≈ 1.63 µM) | 4 µg/mL (≈ 6.53 µM) | 0.5 µg/mL (≈ 0.816 µM) |
| CC(C)[C@H](N)C(=O)OCC1=C(C(=O)O)N2C(=O)C(NC(=O)/C(=N\OC(C)(C)C(=O)O)c3csc(N)n3)C2[S+]([O-])C1 (stereo partly drawn) [41 806] | 8 µg/mL (≈ 13.3 µM) | 1 µg/mL (≈ 1.66 µM) | 1 µg/mL (≈ 1.66 µM) | 0.5 µg/mL (≈ 0.832 µM) | 4 µg/mL (≈ 6.66 µM) | 8 µg/mL (≈ 13.3 µM) | 0.5 µg/mL (≈ 0.832 µM) |
| CC(O)C(N)C(=O)OCC1=C(C(=O)O)N2C(=O)C(NC(=O)C(=NOC(C)(C)C(=O)O)c3csc(N)n3)C2[S+]([O-])C1 (stereo not drawn) [41 885] | 8 µg/mL (≈ 13.3 µM) | 1 µg/mL (≈ 1.66 µM) | 4 µg/mL (≈ 6.64 µM) | 0.5 µg/mL (≈ 0.83 µM) | 4 µg/mL (≈ 6.64 µM) | 8 µg/mL (≈ 13.3 µM) | 0.5 µg/mL (≈ 0.83 µM) |
| Cc1c(CN)cccc1C(=O)SCC1=C(C(=O)O)N2C(=O)C(NC(=O)C(=NOC3(C(=O)O)CCC3)c3csc(N)n3)C2[S+]([O-])C1 (stereo not drawn) [compound 42536] | 0.5 µg/mL (≈ 0.739 µM) | 0.5 µg/mL (≈ 0.739 µM) | 0.25 µg/mL (≈ 0.369 µM) | ≤ 0.125 µg/mL | 0.5 µg/mL (≈ 0.739 µM) | 8 µg/mL (≈ 11.8 µM) | 0.25 µg/mL (≈ 0.369 µM) |
| Cc1ccc(CN)c(C)c1C(=O)OCC1=C(C(=O)O)N2C(=O)C(NC(=O)C(=NOC3(C(=O)O)CCC3)c3csc(N)n3)C2[S+]([O-])C1 (stereo not drawn) [42 541] | 0.25 µg/mL (≈ 0.371 µM) | 0.5 µg/mL (≈ 0.741 µM) | 0.25 µg/mL (≈ 0.371 µM) | ≤ 0.125 µg/mL | 0.5 µg/mL (≈ 0.741 µM) | 4 µg/mL (≈ 5.93 µM) | ≤ 0.125 µg/mL |
| CC(O/N=C(\C(=O)NC1C(=O)N2C(C(=O)O)=C(COC(=O)c3ccc(CN)cc3)C[S+]([O-])C12)c1csc(N)n1)C(=O)O (stereo not drawn) [42 216] | ≤ 0.12 µg/mL | ≤ 0.12 µg/mL | ≤ 0.12 µg/mL | ≤ 0.12 µg/mL | 0.5 µg/mL (≈ 0.806 µM) | 8 µg/mL (≈ 12.9 µM) | ≤ 0.12 µg/mL |
| Cc1cc(C(=O)OCC2=C(C(=O)O)N3C(=O)C(NC(=O)/C(=N\OC4(C(=O)O)CCC4)c4csc(N)n4)C3[S+]([O-])C2)ccc1CN (stereo not drawn) [42 463] | ≤ 0.125 µg/mL | ≤ 0.125 µg/mL | ≤ 0.125 µg/mL | ≤ 0.125 µg/mL | 0.5 µg/mL (≈ 0.757 µM) | 4 µg/mL (≈ 6.05 µM) | ≤ 0.125 µg/mL |
| CC(O/N=C(\C(=O)NC1C(=O)N2C(C(=O)O)=C(COC(=O)CCCCN)C[S+]([O-])C12)c1csc(N)n1)C(=O)O (stereo not drawn) [42 214] | ≤ 0.12 µg/mL | ≤ 0.12 µg/mL | ≤ 0.12 µg/mL | ≤ 0.12 µg/mL | 0.5 µg/mL (≈ 0.852 µM) | 16 µg/mL (≈ 27.3 µM) | ≤ 0.12 µg/mL |
| Cc1c(CN)cccc1C(=O)OCC1=C(C(=O)O)N2C(=O)C(NC(=O)C(=NOC3(C(=O)O)CCC3)c3csc(N)n3)C2[S+]([O-])C1 (stereo not drawn) [42 540] | ≤ 0.125 µg/mL | 0.25 µg/mL (≈ 0.378 µM) | 0.125 µg/mL (≈ 0.189 µM) | ≤ 0.125 µg/mL | 0.25 µg/mL (≈ 0.378 µM) | 4 µg/mL (≈ 6.05 µM) | ≤ 0.125 µg/mL |
| CC(ON=C(C(=O)NC1C(=O)N2C(C(=O)O)=C(CSC(=O)c3ccc(CN)cc3)C[S+]([O-])C12)c1csc(N)n1)C(=O)O (stereo not drawn) [compound 42221] | 0.25 µg/mL (≈ 0.393 µM) | 0.25 µg/mL (≈ 0.393 µM) | ≤ 0.12 µg/mL | ≤ 0.12 µg/mL | 2 µg/mL (≈ 3.14 µM) | 64 µg/mL (≈ 101 µM) | ≤ 0.12 µg/mL |
| CC(CCN)C(=O)OCC1=C(C(=O)O)N2C(=O)C(NC(=O)C(=NOC3(C(=O)O)CCC3)c3csc(N)n3)C2[S+]([O-])C1 (stereo not drawn) [42 209] | ≤ 0.12 µg/mL | 0.25 µg/mL (≈ 0.408 µM) | ≤ 0.12 µg/mL | ≤ 0.12 µg/mL | 0.5 µg/mL (≈ 0.816 µM) | 4 µg/mL (≈ 6.53 µM) | 0.25 µg/mL (≈ 0.408 µM) |
| CC(C)(O/N=C(\C(=O)NC1C(=O)N2C(C(=O)O)=C(COC(=O)CC3CCCCN3)C[S+]([O-])C12)c1csc(N)n1)C(=O)O (stereo not drawn) [42 371] | 0.25 µg/mL (≈ 0.399 µM) | 0.5 µg/mL (≈ 0.798 µM) | 0.25 µg/mL (≈ 0.399 µM) | ≤ 0.125 µg/mL | 0.5 µg/mL (≈ 0.798 µM) | 8 µg/mL (≈ 12.8 µM) | 0.25 µg/mL (≈ 0.399 µM) |
| NCc1cccc(C(=O)OCC2=C(C(=O)O)N3C(=O)C(NC(=O)/C(=N\OC4(C(=O)O)CCC4)c4csc(N)n4)C3[S+]([O-])C2)c1 (stereo not drawn) [42 462] | ≤ 0.125 µg/mL | 0.25 µg/mL (≈ 0.387 µM) | ≤ 0.125 µg/mL | ≤ 0.125 µg/mL | 0.5 µg/mL (≈ 0.773 µM) | 4 µg/mL (≈ 6.19 µM) | ≤ 0.125 µg/mL |
